According to patent US9708336B2, “Metallo-beta-lactamase inhibitors” (priority 2014, dated 2017):
Read-outs that look alike come from different tables or passages of the source.

What was measured:
NDM-1 = NDM-1 (Klebsiella pneumoniae, UniProt C7C422); experiment: biochemical; type: biochemical; details: read-out: NDM-1 IC50
IMP-1 = IMP-1 (Serratia marcescens, UniProt P52699); experiment: biochemical; type: biochemical; details: read-out: IMP-1 IC50
VIM-1 = VIM-1 (Pseudomonas aeruginosa (strain ATCC 15692 / DSM 22644 / CIP 104116 / JCM 14847 / LMG 12228 / 1C / PRS 101 / PAO1), UniProt A0A0F7KYQ8); experiment: Enzyme activity: determination of IC50, fluorescence assay with CCF2-FA substrate (VIM-1); type: biochemical
[1] = tested on: Escherichia coli expressing NDM-1 (CLB30016); experiment: Antibiotic potentiation activity: synergistic concentration (MITC95) with imipenem, OD600 growth; type: cell-based; details: for Escherichia coli expressing NDM-1 (CLB 30016) MITC95: concentration giving 95% inhibition of bacterial growth
Method in brief: (§1)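 Each strain, suspended in saline from overnight colonies and diluted 1:100 into 1.1× CAMHB, is dosed with imipenem at 4 μg/ml (or 1 μg/ml) plus compound, incubated 22–24 h at 35 °C and read by absorbance.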

[2] = tested on: Klebsiella pneumoniae expressing VIM-1 (IHMA599644); experiment: as above; type: cell-based; details: for Klebsiella pneumoniae expressing VIM-1 (IHMA 599644) MITC95: concentration giving 95% inhibition of bacterial growth
Method in brief: as §1

[3] = tested on: Serratia marcescens expressing IMP-1 (CL5741); experiment: as above; type: cell-based; details: for Serratia marcescens expressing IMP-1 (CL5741) MITC95: concentration giving 95% inhibition of bacterial growth
Method in brief: as §1

[4] = fluorescence assay with CCF2-FA substrate
[5] = fluorescence assay with CCF2-FA substrate, read-out: VIM-1 IC50
[6] = NDM-1 enzyme, CCF2-FA substrate
[7] = IMP-1 enzyme, CCF2-FA substrate
[8] = VIM-1 enzyme, CCF2-FA substrate, read-out: VIM-1 IC50
[9] = (CLB30016, NDM-1), 95% growth inhibition
[10] = Klebsiella pneumoniae IHMA599644 (VIM-1), 95% growth inhibition
[11] = Serratia marcescens CL5741 (IMP-1), 95% growth inhibition
[12] = NDM-1 enzyme, CCF2-FA fluorescence assay
[13] = IMP-1 enzyme, CCF2-FA fluorescence assay
[14] = VIM-1 enzyme, CCF2-FA fluorescence assay, read-out: VIM-1 IC50
[15] = Escherichia coli expressing NDM-1 (CLB30016), 95% growth inhibition
[16] = Klebsiella pneumoniae expressing VIM-1 (IHMA599644), 95% growth inhibition
[17] = Serratia marcescens expressing IMP-1 (CL5741), 95% growth inhibition
[18] = VIM-1 IC50, fluorescence assay with CCF2-FA substrate
[19] = VIM-1 IC50, VIM-1 enzyme, CCF2-FA fluorescence assay

Chain of IMP-1 (P52699 whole entry, looked up): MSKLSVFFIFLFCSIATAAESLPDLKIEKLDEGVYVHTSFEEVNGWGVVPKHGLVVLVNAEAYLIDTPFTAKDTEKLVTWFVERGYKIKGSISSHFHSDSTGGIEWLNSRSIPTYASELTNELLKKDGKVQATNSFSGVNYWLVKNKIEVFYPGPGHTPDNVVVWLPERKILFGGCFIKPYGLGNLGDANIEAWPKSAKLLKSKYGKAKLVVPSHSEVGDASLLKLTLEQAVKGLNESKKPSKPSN
Chain of NDM-1 (C7C422 whole entry, looked up, species assumed): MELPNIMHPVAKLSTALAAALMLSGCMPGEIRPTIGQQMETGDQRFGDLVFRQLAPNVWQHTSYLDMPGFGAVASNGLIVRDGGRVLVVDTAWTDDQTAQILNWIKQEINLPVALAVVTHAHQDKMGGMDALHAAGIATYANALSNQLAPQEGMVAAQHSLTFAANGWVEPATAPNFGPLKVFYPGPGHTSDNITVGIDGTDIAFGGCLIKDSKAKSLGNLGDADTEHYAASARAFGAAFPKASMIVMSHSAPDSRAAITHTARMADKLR

SMILES	IC50 (NDM-1; [6]) [nM]	IC50 (IMP-1; [7]) [nM]	IC50 (VIM-1; [8]) [nM]	Escherichia coli MITC95 [1, 9] [µM]	Klebsiella pneumoniae MITC95 [2, 10] [µM]	Serratia marcescens MITC95 [3, 11] [µM]	IC50 (NDM-1; [12]) [nM]	IC50 (IMP-1; [13]) [nM]	Escherichia coli MITC95 [1, 15] [µM]	Klebsiella pneumoniae MITC95 [2, 16] [µM]	Serratia marcescens MITC95 [3, 17] [µM]	further results
NS(=O)(=O)c1nccc(NCCC2CCCCC2)c1-c1nnn[nH]1 [Example 236, 4-[(2-cyclohexylethyl)amino]-3-(1H-tetrazol-5-yl)pyridine-2-sulfonamide]												IC50 (NDM-1; [4]): 38.6 nM; IC50 (IMP-1; [4]): 223 nM; IC50 (VIM-1; [5]): 188 nM; Escherichia coli expressing NDM-1 (CLB 30016) MITC95 [1]: 18.75 µM; Klebsiella pneumoniae expressing VIM-1 (IHMA 599644) MITC95 [2]: >200 µM; Serratia marcescens expressing IMP-1 (CL5741) MITC95 [3]: 25 µM
NS(=O)(=O)c1c(C(F)(F)F)ccc(-c2cccc(N3CCNCC3)c2)c1-c1nnn[nH]1 [Example 723, 3′-piperazin-1-yl-2-(1H-tetrazol-5-yl)-4-(trifluoromethyl)biphenyl-3-sulfonamide]	7.78	17.2	1.26	6.25	12.5	25						
NS(=O)(=O)c1c(C(F)(F)F)ccc(-c2cccc3c2CNC3=O)c1-c1nn[nH]n1 [Example 525, 3-(1-Oxoisoindolin-4-yl)-2-(2H-tetrazol-5-yl)-6-(trifluoromethyl)benzenesulfonamide]	0.541	6.85	0.0897	3.125	4.688	12.5						
CC(C)[C@@H](N)CN1CCC(c2ccc(-c3cccc(S(N)(=O)=O)c3-c3nnn[nH]3)cc2)CC1 [Example 614, 3-[4-[1-[(2R)-2-amino-3-methyl-butyl]-4-piperidyl]phenyl]-2-(1H-tetrazol-5-yl)benzenesulfonamide]	5.89	11.6	505	1.172	>200	1.563						
NS(=O)(=O)c1c(C(F)(F)F)ccc(-c2ccc(CN3CCNCC3)cc2)c1-c1nnn[nH]1 [Example 718, 4′-(piperazin-1-ylmethyl)-2-(1H-tetrazol-5-yl)-4-(trifluoromethyl)biphenyl-3-sulfonamide]	1.51	2.4	1.73	12.5	25	6.25						
NS(=O)(=O)c1cccc(-c2ccc(OC3CCNCC3)cc2)c1-c1nnn[nH]1 [Example 316, 4′-(piperidin-4-yloxy)-2-(1H-tetrazol-5-yl)-[1,1′-biphenyl]-3-sulfonamide]							5.11	69.3	0.9766	12.5	2.344	IC50 (VIM-1; [14]): 67.7 nM
NS(=O)(=O)c1c(C[C@H]2CC[C@H](N)CC2)ccc(-c2ccc(C3CCNC3)cc2)c1-c1nn[nH]n1 (stereo partly drawn) [Example 582, 4-(((1r,4r)-4-aminocyclohexyl)methyl)-4′-(pyrrolidin-3-yl)-2-(2H-tetrazol-5-yl)-[1,1′-biphenyl]-3-sulfonamide]	3.99	17.4	1.57	0.7813	1.563	1.563						
NS(=O)(=O)c1c(C(F)(F)F)ccc(-c2snc3ncccc23)c1-c1nnn[nH]1 [Example 709, 3-isothiazolo[3,4-b]pyridin-3-yl-2-(1H-tetrazol-5-yl)-6-(trifluoromethyl)benzenesulfon-amide]	6.58	16.4	0.289	6.25	6.25	25						
NS(=O)(=O)c1c(C(F)(F)F)ccc(C2CCNc3ccccc32)c1-c1nnn[nH]1 (stereo not drawn) [Example 493, 3-(1,2,3,4-Tetrahydroquinolin-4-yl)-2-(1H-tetrazol-5-yl)-6-(trifluoromethyl)benzenesulfonamide]	1.69	4.5	0.133	1.563	3.125	0.3906						
NCC1COc2ccc(-c3ccc(C(F)(F)F)c(S(N)(=O)=O)c3-c3nnn[nH]3)cc21 (stereo not drawn) [Example 733, 3-[3-(aminomethyl)-2,3-dihydro-1-benzofuran-5-yl]-2-(1H-tetrazol-5-yl)-6-(trifluoromethyl)benzenesulfon-amide]	33.5	34.3	1.47	12.5	6.25	25						
NS(=O)(=O)c1c(C(F)(F)F)ccc(-c2ccnc3ccccc23)c1-c1nn[nH]n1 [Example 273, 3-(quinolin-4-yl)-2-(2H-tetrazol-5-yl)-6-(trifluoromethyl)benzenesulfonamide]							0.581	3.21	4.688	6.25	0.3906	IC50 (VIM-1; [14]): 0.165 nM
NS(=O)(=O)c1c(C(F)(F)F)ccc(-c2ccc(C3CNC3)cc2)c1-c1nn[nH]n1 [Example 433, 4′-(azetidin-3-yl)-2-(2H-tetrazol-5-yl)-4-(trifluoromethyl)-[1,1′-biphenyl]-3-sulfonamide]							0.875	0.563	0.6406	0.7656	0.1875	IC50 (VIM-1; [14]): 0.984 nM
NS(=O)(=O)c1cccc(-c2cccc3c2CNC3=O)c1-c1nnn[nH]1 [Example 120, 3-(1-oxoisoindolin-4-yl)-2-(1H-tetrazol-5-yl)benzenesulfonamide]												IC50 (NDM-1; [4]): 1.42 nM; IC50 (IMP-1; [4]): 777 nM; IC50 (VIM-1; [18]): 4.99 nM; Escherichia coli expressing NDM-1 (CLB 30016) MITC95 [1]: 0.7813 µM; Klebsiella pneumoniae expressing VIM-1 (IHMA 599644) MITC95 [2]: 4.688 µM; Serratia marcescens expressing IMP-1 (CL5741) MITC95 [3]: 18.75 µM
Nc1ncc(-c2ccc(C(F)(F)F)c(S(N)(=O)=O)c2-c2nnn[nH]2)cc1F [Example 476, 3-(6-amino-5-fluoro-3-pyridyl)-2-(1H-tetrazol-5-yl)-6-(trifluoromethyl)benzenesulfonamide]							1.79	3.98	1.563	1.563	0.5859	IC50 (VIM-1; [14]): 0.263 nM
Nc1ncnc2cc(-c3ccc(C(F)(F)F)c(S(N)(=O)=O)c3-c3nnn[nH]3)ccc12 [Example 749, 3-(4-aminoquinazolin-7-yl)-2-(1H-tetrazol-5-yl)-6-(trifluoromethyl)benzenesulfon-amide]												IC50 (NDM-1; [4]): 2.35 nM; IC50 (IMP-1; [4]): 4.12 nM; IC50 (VIM-1; [18]): 0.262 nM; Escherichia coli MITC95 ([1]; CLB30016 (NDM-1), 95% inhibition of bacterial growth): 3.125 µM; Klebsiella pneumoniae MITC95 ([2]; IHMA599644 (VIM-1), 95% inhibition of bacterial growth): 6.25 µM; Serratia marcescens MITC95 ([3]; CL5741 (IMP-1), 95% inhibition of bacterial growth): 12.5 µM
N#Cc1ccccc1Cc1cccc(S(N)(=O)=O)c1-c1nnn[nH]1 [Example 166, 3-(2-cyanobenzyl)-2-(1H-tetrazol-5-yl)benzenesulfonamide]												IC50 (NDM-1; [4]): 6.89 nM; IC50 (IMP-1; [4]): 74.5 nM; IC50 (VIM-1; [5]): 18.8 nM; Escherichia coli expressing NDM-1 (CLB 30016) MITC95 [1]: 2.344 µM; Klebsiella pneumoniae expressing VIM-1 (IHMA 599644) MITC95 [2]: 100 µM; Serratia marcescens expressing IMP-1 (CL5741) MITC95 [3]: 3.906 µM
NS(=O)(=O)c1nccc(N2CCC(c3nnc4ccccn34)CC2)c1-c1nnn[nH]1 [Example 241, 3-(1H-tetrazol-5-yl)-4-(4-[1,2,4]triazolo[4,3-a]pyridin-3-ylpiperidin-1-yl)pyridine-2-sulfonamide]							67.7	335	1.563	>200	12.5	IC50 (VIM-1; [19]): 774 nM
Nc1n[nH]c2cc(-c3ccc(C(F)(F)F)c(S(N)(=O)=O)c3-c3nnn[nH]3)ccc12 [Example 477, 3-(3-amino-1H-indazol-6-yl)-2-(1H-tetrazol-5-yl)-6-(trifluoromethyl)benzenesulfonamide]							1.01	6.38	0.7813	6.25	0.5859	IC50 (VIM-1; [14]): 0.722 nM
NS(=O)(=O)c1cccc(-c2ccc(CNCC3(O)CCC3)cc2)c1-c1nnn[nH]1 [Example 376, 4′-({[(1-hydroxycyclobutyl)methyl]amino}methyl)-2-(1H-tetrazol-5-yl)biphenyl-3-sulfonamide]							14.4	96.6	2.344	15.63	4.688	IC50 (VIM-1; [19]): 50.4 nM
